Experiment: solubility in water
Format: physicochemical
Conditions: pH 7.4, aqueous buffer
Description: Examples of such active ingredients are, for example, Biopharmaceutics Classification System (BCS) Class IV drug substances that are characterized by low solubility and low permeability (see “Waiver of in vivo bioavailability and bioequivalence studies for immediate-release solid oral dosage forms based on a biopharmaceutics classification system”, U.S. Department of Health and Human Services, Food and Drug Administration, Center for Drug Evaluation and Research (CDER), August 2000). It will be recognized that aqueous solubility of many compounds is pH-dependent; in the case of such compounds the solubility of interest herein is at a physiologically relevant pH, for example a pH of about 1 to about 8.

solubility: < 0.03 µg/mL
Compound: Nc1ncc(-c2cnn(CCO)c2)c2scc(-c3ccc(NC(=O)Nc4cccc(F)c4)cc3)c12 [N-(4-{4-amino-7-[1-(2-hydroxyethyl)-1H-pyrazol-4-yl]thieno[3,2-c]pyridin-3-yl}phenyl)-N′-(3-fluorophenyl)urea]

From patent US8557995B2, “Solid dispersions containing kinase inhibitors” (AbbVie Inc., priority 2010, dated 2013)
